Reference: PMC6199744, “Development of Chemical Proteomics for the Folateome and Analysis of the Kinetoplastid Folateome” (ACS Infectious Diseases, 2018)
Where two headings read alike, the source gives them in different places.

Columns and labels:
Assay type in all cases: binding
[1] = target: T1, HeLa cell extract proteins (Homo sapiens, UniProt P30084)
T1 construct: endogenous in cells; host or cells: HeLa cell extract
T1 sequence (P30084 28-290): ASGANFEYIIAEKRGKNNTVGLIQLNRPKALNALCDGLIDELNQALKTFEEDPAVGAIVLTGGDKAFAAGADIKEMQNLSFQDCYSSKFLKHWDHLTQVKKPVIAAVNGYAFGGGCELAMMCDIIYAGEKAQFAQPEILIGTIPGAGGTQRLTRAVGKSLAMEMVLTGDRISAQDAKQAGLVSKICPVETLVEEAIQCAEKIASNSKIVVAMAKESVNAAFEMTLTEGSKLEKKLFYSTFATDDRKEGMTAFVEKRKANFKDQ

[2] = target: T2, HeLa cell extract proteins (Homo sapiens, UniProt P49588)
T2 construct: endogenous in cells; host or cells: HeLa cell extract
T2 sequence (P49588 1-968): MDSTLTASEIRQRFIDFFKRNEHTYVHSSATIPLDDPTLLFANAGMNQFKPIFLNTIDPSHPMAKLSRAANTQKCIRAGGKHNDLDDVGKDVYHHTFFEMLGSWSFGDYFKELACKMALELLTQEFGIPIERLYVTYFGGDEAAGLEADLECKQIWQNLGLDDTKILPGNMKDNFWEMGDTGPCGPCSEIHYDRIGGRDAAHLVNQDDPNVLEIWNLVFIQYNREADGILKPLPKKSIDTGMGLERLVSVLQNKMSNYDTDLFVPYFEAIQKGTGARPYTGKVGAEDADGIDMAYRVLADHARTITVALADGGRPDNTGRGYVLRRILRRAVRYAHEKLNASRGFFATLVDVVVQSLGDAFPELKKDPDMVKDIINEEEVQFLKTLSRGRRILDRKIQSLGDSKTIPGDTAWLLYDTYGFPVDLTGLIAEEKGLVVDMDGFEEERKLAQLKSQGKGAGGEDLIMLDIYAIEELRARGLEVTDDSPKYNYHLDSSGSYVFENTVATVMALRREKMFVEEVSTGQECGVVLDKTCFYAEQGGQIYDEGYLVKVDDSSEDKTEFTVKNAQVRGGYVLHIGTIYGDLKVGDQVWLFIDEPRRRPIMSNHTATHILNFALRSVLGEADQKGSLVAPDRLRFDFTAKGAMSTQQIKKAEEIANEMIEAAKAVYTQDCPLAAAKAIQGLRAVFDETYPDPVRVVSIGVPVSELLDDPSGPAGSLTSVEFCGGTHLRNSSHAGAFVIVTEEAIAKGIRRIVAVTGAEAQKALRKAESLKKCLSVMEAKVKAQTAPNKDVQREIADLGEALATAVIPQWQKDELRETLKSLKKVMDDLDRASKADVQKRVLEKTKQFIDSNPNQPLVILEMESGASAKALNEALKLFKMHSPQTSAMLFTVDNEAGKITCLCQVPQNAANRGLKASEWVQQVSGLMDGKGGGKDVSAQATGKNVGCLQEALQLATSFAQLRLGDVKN

[3] = target: T3, HeLa cell extract proteins (Homo sapiens, UniProt P60900)
T3 construct: endogenous in cells; host or cells: HeLa cell extract
T3 sequence (P60900 whole entry): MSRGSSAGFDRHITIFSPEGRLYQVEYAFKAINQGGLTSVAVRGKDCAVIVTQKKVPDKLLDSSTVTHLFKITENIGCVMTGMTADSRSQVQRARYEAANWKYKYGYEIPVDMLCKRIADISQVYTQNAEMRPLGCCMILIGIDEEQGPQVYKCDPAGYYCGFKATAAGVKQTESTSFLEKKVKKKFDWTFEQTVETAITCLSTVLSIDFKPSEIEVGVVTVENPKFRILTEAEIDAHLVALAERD

[4] = target: T4, HeLa cell extract proteins (Homo sapiens, UniProt Q7L8L6)
T4 construct: endogenous in cells; host or cells: HeLa cell extract
T4 sequence (Q7L8L6 28-764): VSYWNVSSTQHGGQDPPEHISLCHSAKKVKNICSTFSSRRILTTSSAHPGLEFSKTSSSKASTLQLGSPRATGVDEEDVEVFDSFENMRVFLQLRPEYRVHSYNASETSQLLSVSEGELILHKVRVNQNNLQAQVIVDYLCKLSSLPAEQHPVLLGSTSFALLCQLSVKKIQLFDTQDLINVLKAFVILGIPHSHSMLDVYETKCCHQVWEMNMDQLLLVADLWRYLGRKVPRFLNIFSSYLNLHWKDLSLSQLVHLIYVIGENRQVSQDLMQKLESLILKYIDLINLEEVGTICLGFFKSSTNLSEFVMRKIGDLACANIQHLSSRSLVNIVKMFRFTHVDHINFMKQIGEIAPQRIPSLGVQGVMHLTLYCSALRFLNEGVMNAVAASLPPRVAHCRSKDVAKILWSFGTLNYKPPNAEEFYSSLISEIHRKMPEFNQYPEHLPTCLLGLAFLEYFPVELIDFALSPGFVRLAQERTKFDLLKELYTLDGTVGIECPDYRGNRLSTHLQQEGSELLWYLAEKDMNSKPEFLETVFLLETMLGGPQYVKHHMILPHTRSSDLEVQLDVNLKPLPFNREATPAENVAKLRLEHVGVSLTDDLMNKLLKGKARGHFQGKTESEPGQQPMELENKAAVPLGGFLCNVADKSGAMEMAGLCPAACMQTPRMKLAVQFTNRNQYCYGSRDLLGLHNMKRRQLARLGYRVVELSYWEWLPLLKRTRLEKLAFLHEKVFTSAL

[5] = target: T5, HeLa cell extract proteins (Homo sapiens, UniProt Q8N1F7)
T5 construct: endogenous in cells; host or cells: HeLa cell extract
T5 sequence (Q8N1F7 1-819): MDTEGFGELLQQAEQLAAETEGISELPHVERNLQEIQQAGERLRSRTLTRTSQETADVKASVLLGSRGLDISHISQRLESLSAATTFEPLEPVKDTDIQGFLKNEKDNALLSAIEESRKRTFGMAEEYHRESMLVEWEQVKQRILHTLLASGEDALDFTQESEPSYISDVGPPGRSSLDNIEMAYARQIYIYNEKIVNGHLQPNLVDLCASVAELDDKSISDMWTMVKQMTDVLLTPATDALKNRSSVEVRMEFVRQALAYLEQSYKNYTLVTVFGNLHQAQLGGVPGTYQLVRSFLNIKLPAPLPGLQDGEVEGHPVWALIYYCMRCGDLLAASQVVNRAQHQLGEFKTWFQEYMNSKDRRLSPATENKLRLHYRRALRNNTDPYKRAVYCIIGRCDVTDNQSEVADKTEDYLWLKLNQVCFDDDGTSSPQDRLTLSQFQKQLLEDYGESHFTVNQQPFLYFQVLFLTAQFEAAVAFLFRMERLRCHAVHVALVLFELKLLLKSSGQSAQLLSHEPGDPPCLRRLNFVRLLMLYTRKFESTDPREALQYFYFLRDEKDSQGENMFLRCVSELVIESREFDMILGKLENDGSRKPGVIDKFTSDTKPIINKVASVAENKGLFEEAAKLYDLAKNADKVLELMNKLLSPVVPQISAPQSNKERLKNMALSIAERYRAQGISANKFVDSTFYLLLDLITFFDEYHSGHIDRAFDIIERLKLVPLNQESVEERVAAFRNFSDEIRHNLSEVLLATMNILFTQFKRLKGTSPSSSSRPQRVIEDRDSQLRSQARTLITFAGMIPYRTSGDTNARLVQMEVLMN

## Nc1nc2c(c(=O)[nH]1)N(C=O)C(CNc1ccc(C(=O)N[C@@H](CCC(=O)O)C(=O)O)cc1)CN2 (some centres unmarked) [LEU, leucovorin]
[1]; HeLa, captured protein ECHS1
  fold changes relative to vehicle control: 0.89
[2]; HeLa, protein AARS
  fold changes relative to vehicle control: 1.02
[3]; HeLa, protein PSMA6
  fold changes relative to vehicle control: 1.02
[4]; HeLa, protein FASTKD5
  fold changes relative to vehicle control: 0.87
[5]; protein NUP93, HeLa
  fold changes relative to vehicle control: 0.84

## Nc1nc2[nH]cc(CCc3ccc(C(=O)N[C@@H](CCC(=O)O)C(=O)O)cc3)c2c(=O)[nH]1 [PTX, pemetrexed]
[1]
  fold changes relative to vehicle control: 0.98
[2]
  fold changes relative to vehicle control: 1.1
[3]
  fold changes relative to vehicle control: 1
[4]
  fold changes relative to vehicle control: 0.84
[5]
  fold changes relative to vehicle control: 0.91

## CCCCCCOc1ccc(Cc2cnc(N)nc2N)cc1 [compound 1]
[1]; protein ECHS1, HeLa
  fold changes relative to vehicle control: 0.98
[2]; protein AARS, HeLa
  fold changes relative to vehicle control: 1.15
[3]; protein PSMA6, HeLa
  fold changes relative to vehicle control: 1.1
[4]; captured protein FASTKD5, HeLa
  fold changes relative to vehicle control: 1.07
[5]; captured protein NUP93, HeLa
  fold changes relative to vehicle control: 0.87

## CCCCCCOc1cccc(Cc2cnc(N)nc2N)c1 [compound 2]
[1]; protein ECHS1, HeLa
  fold changes relative to vehicle control: 0.92
[2]; protein AARS, HeLa
  fold changes relative to vehicle control: 1.96
[3]; protein PSMA6, HeLa
  fold changes relative to vehicle control: 1.27
[4]; captured protein FASTKD5, HeLa
  fold changes relative to vehicle control: 0.94
[5]; captured protein NUP93, HeLa
  fold changes relative to vehicle control: 0.96

## Nc1nc2cccc(-c3ccccc3)c2n1Cc1ccc(Cl)c(Cl)c1 [compound 3]
[1]; protein ECHS1, HeLa
  fold changes relative to vehicle control: 0.91
[2]; protein AARS, HeLa
  fold changes relative to vehicle control: 0.95
[3]; protein PSMA6, HeLa
  fold changes relative to vehicle control: 1.02
[4]; captured protein FASTKD5, HeLa
  fold changes relative to vehicle control: 1.06
[5]; captured protein NUP93, HeLa
  fold changes relative to vehicle control: 0.96

## NCCOCCOCC(=O)Nc1nc2ncc(CNc3ccc(C(=O)NC(CCC(=O)O)C(=O)O)cc3)nc2c(=O)[nH]1 (centres unmarked) [compound 6]
[1]; HeLa, captured protein ECHS1
  fold changes relative to vehicle control: 0.76
[2]; HeLa, protein AARS
  fold changes relative to vehicle control: 1.28
[3]; HeLa, protein PSMA6
  fold changes relative to vehicle control: 1
[4]; HeLa, protein FASTKD5
  fold changes relative to vehicle control: 0.88
[5]; protein NUP93, HeLa
  fold changes relative to vehicle control: 1.01

## NCCCNc1ccc(C(=O)NC(CCC(=O)O)C(=O)O)cc1 (centres unmarked) [compound 7]
[1]; HeLa, captured protein ECHS1
  fold changes relative to vehicle control: 0.91
[2]; HeLa, protein AARS
  fold changes relative to vehicle control: 1
[3]; HeLa, protein PSMA6
  fold changes relative to vehicle control: 1
[4]; HeLa, protein FASTKD5
  fold changes relative to vehicle control: 0.97
[5]; protein NUP93, HeLa
  fold changes relative to vehicle control: 0.9
